“And” between values parts separate entries of the source, which are not always exact repeats. Equal entries are not always repeated. No end group written: not given here.
Tests used:
[1] = tested on: COPD patients; assay: Phase II double-blind, randomized, placebo-controlled clinical trial of inhaled VIP in COPD; settings: VIP (n = 15)
Experimental: Chronic obstructive pulmonary disease (COPD) is characterised by progressive airflow limitation associated with chronic inflammation. […] The efficacy and safety of VIP in patients was assessed with moderate to severe COPD.
The present double-blind, randomized, placebo-controlled study was undertaken in an outpatient setting. COPD patients (n=34) were randomly assigned VIP 50 μg (n=17), or placebo (n=17), given per inhalation, 4 times daily for 12 weeks. VIP serum concentration was measured in all patients. Primary outcomes were health-related quality of life and exercise capacity. Secondary outcomes included the lung function parameters and COPD exacerbations.

[2] = tested on: PASMC; assay: cAMP measurement in PASMC (cyclic AMP ELISA); assay type: cell-based; settings: for cAMP +/− SD: 20 min; for cyclic AMP content of PASMC, effect in words: analogues compared with VIP
Experimental: Effects of VIP and the peptides according to the invention are mediated by specific G-protein coupled receptors. Three distinct receptor subtypes, with differing affinity for the peptides, have been cloned and characterized as receptors 1 and 2 (VPAC1 and VPAC2) and pituitary adenylate cyclase activating polypeptide receptor (PAC1). The secondary messenger is cyclic adenosine mono phosphate (CAMP). […] Cells derived from pulmonary artery (PASMC) were seeded in 24 well plates and cultured in DMEM containing 10% fetal calf serum (Gibco lifesciences, Karlsruhe), Penicillin (Gibco lifesciences, Karlsruhe, 100 U/ml) Streptomycin (Gibco lifesciences, Karlsruhe, 100 U/ml) to confluency. […] The incubation is stopped by rinsing cells with PBS and immediate lysis of cells with HCl (0.1N) containing 3-isobutyl 1-methyl xanthine (500 μM) to block further hydrolysis of cAMP. Lysed cells were centrifuged and the supernatants assayed for cAMP using an commercially available cyclic AMP ELISA (Assay Designs, Inc., Michigan, distribution by Bio Trend, Köln).

[3] = tested on: monocytes after LPS stimulation; assay: Nitrite (NO) production by monocytes/macrophages after LPS stimulation; assay type: cell-based, human; settings: for Nitrit +/− SD: LPS 100 nM + peptide 100 nM, 24 hours, no LPS 48, LPS alone 75; for anti-inflammatory response (NO production) on simultaneous incubation with LPS: after 24 hours, analogues compared with VIP
Experimental: Peripheral blood mononuclear cells were isolated from whole venous blood from 12 stable COPD patients and 12 healthy probands by Ficoll density gradient centrifugation. Monocytes were differentiated in RPMI-1640 medium supplemented with 5% FCS, antibiotics and 10^−8 M 1,25-dihydroxycholecalciferol (Sigma) in a humidified atmosphere with 5% CO2 at 37° C.
For infection simulation, macrophage stimulation and experimental in vivo treatment the differentiated cells were incubated either with LPS, with LPS and SEQ ID No.:1 (VIP) or SEQ ID No.:2 (A-15) or SEQ ID No.:3 (A-18), or with medium alone for control.
To test the hypothesis whether or not the macrophages utilize the VIP-signaling pathway to modulate and limit the immune response, the inflammation reaction in vitro was stimulated and NO (produced by iNOS) production by the cells was measured under inflammation and under in vitro therapy with VIP and the peptides according to the invention (SEQ ID Nos 2 and 3). NOS increased dramatically by LPS after 24 hours. […] This anti-inflammatory response was better by both VIP-analogues according to SEQ ID Nos. 2 and 3.

Row | Compound | Nitrit +/− SD [3] [µmol] | anti-inflammatory response (NO production) on simultaneous incubation with LPS [3] | cyclic AMP content of PASMC, effect in words [2] | cAMP +/− SD ([2]; peptide 1 nM + IBMX 500 μM) [pmol/mL] | cAMP +/− SD ([2]; peptide 1 nM, without IBMX) [pmol/mL] | cAMP +/− SD ([2]; peptide 10 nM + IBMX 500 μM) [pmol/mL] | cAMP +/− SD ([2]; peptide 10 nM, without IBMX) [pmol/mL] | cAMP +/− SD ([2]; peptide 100 nM + IBMX 500 μM) [pmol/mL] | cAMP +/− SD ([2]; peptide 100 nM, without IBMX) [pmol/mL] | other results
1 | CC[C@H](C)[C@H](NC(=O)[C@H](CO)NC(=O)[C@H](CC(N)=O)NC(=O)[C@H](CC(C)C)NC(=O)[C@H](Cc1ccc(O)cc1)NC(=O)[C@H](CCCCN)NC(=O)[C@H](CCCCN)NC(=O)[C@@H](NC(=O)[C@H](C)NC(=O)[C@H](CCSC)NC(=O)[C@H](CCC(N)=O)NC(=O)[C@H](CCCCN)NC(=O)[C@H](CCCN=C(N)N)NC(=O)[C@H](CC(C)C)NC(=O)[C@H](CCCN=C(N)N)NC(=O)[C@@H](NC(=O)[C@H](Cc1ccc(O)cc1)NC(=O)[C@H](CC(N)=O)NC(=O)[C@H](CC(=O)O)NC(=O)[C@@H](NC(=O)[C@H](Cc1ccccc1)NC(=O)[C@@H](NC(=O)[C@H](C)NC(=O)[C@H](CC(=O)O)NC(=O)[C@H](CO)NC(=O)[C@@H](N)Cc1c[nH]cn1)C(C)C)[C@@H](C)O)[C@@H](C)O)C(C)C)C(=O)N[C@@H](CC(C)C)C(=O)N[C@@H](CC(N)=O)C(N)=O [VIP] | – | – | – | – | – | – | – | – | – | Adverse events: COPD exacerbation, number [1]: 8; Adverse events: COPD exacerbation, percent [1]: (53.3%); Adverse events: Diarrhoea NOS, number [1]: 0; Adverse events: Diarrhoea NOS, percent [1]: (0%); Adverse events: Nasopharyngitis, number [1]: 0; Adverse events: Nasopharyngitis, percent [1]: (0%); Adverse events: Nausea, number [1]: 0; Adverse events: Nausea, percent [1]: (0%); Adverse events: Upper respiratory tract infection, number [1]: 1; Adverse events: Upper respiratory tract infection, percent [1]: (6.7%)
2 | C=C[C@@]1(C)CC(=O)[C@]2(O)[C@@]3(C)[C@@H](O)CCC(C)(C)[C@@H]3[C@H](O)[C@H](OC(C)=O)[C@@]2(C)O1 [Forskolin, reference compound] | – | – | – | – | – | – | – | – | – | cAMP +/− SD ([2]; Forskolin 10 μM + IBMX 500 μM): 41.10 pmol/mL and 47.81 pmol/mL and 58.00 pmol/mL
3 | His (Ac)-Ser-Asp-Ala-Val-Phe-Thr-Asp-Asn-Tyr-Thr-Arg-Leu-Arg-Lys-Gln-Met (O)-Ala-Val-Lys-Lys-Tyr-Leu-Asn-Ser-Ile-Leu-Asn [Pep - 15] | 16 | better | Higher increase | 26.45 | 13.30 | 27.00 | 16.30 | 36.67 | 23.30 | –
4 | CC(C)Cn1c(=O)n(C)c(=O)c2[nH]cnc21 [IBMX, 3-isobutyl 1-methyl xanthine, reference compound] | – | – | – | – | – | – | – | – | – | cAMP +/− SD ([2]; IBMX 500 μM alone): 16.37 pmol/mL and 17.16 pmol/mL and 15.91 pmol/mL
5 | His (Ac)-Ser-Asp-Ala-Val-Phe-Thr-Asp-Asn-Tyr-Thr-Arg-Leu-Arg-Lys-Gln-Met-Ala-Val-Lys-Lys-Tyr-Leu-Asn-Ser-Val-Leu-Asn ({Ac-H2N}-SDAVFTDNYTRLRKQMAVKKYLNSVLN; not fully specified (residue 16); printed as His (Ac)-Ser-Asp-Ala-Val-Phe-Thr-Asp-Asn-Tyr-Thr-Arg-Leu-Arg-Lys-Gln-Met-Ala-Val-Lys-Lys-Tyr-Leu-Asn-Ser-Val-Leu-Asn) [Pep - 18] | 19 | better | Higher increase | 36.66 | 14.83 | 37.00 | 19.45 | 46.42 | 28.43 | –
